These results are taken from patent US6133249A, “Phospholipid and propylene glycol based lubricant” (MacNaught Medical Pty Limited, priority 1995, dated 2000).

One data set deals with phospholipases. As to conditions: cited from earlier work.
Data set [1] in a line: Retention of radio-labelled DPPC in the joint. Type of data set: in vivo, horse. As to the method:
4. More quantitative tests were undertaken in a further 4 horses administered radio-labelled 50 mg DPPC in 1 ml. The solution was injected into one contraleteral joint and the horse was sacrificed 2-10 days later when the cartilage was excised and synovial fluid collected for radio-assay.

Data set [2] is described as follows: Miscibility and physical state of phospholipid in propylene glycol. As to conditions: all concentrations / any proportion. The class given is physicochemical.
A short description of data set [3]: Inflammatory reaction of horse joints (protein, ALP, leucocyte count, specific gravity). The class given is in vivo. As to conditions: 1 ml PG only, 6 horses. As for the experimental part:
5. Having established the extreme lubricity imparted by exogenous DPPC and the fact that it is likely to remain in the joint for long enough to be worthwhile clinically, the next step was to look for any inflammatory reaction.
The following parameters were used as indices of inflammatory reaction:
2. Alkaline phosphatase (ALP)
6. In the next series of trials, the joints of 6 horses were injected with 1 ml of PG only to see whether the solvent was the major cause of the inflammatory reaction.
7. The main series of trials was then devised to compare the inflammatory reaction of the radiocarpal joint to the product (100 mg DPPC in 1 mlPG) with the reactions to other agents commonly injected into that joint in the normal course of clinical practice.
The agents selected for comparison were
1. A standard clinical (1 ml) dose of prilocaine--a local anaesthetic.
2. A standard clinical dose of hyaluromic acid (Hyartil)™ (1 ml) a joint lubricant.

For data set [4] the following is noted: cited from earlier work.

For `CCCCCCCCCCCCCCCC(=O)OC[C@@H](COP(=O)([O-])OCC[N+](C)(C)C)OC(=O)CCCCCCCCCCCCCCC` [D-enantiomeric alpha-DPPC, alpha-dipalmitoyl phosphatidylcholine], in the data set on phospholipases, the “metabolism by endogenous phospholipases” value is listed as “cannot break down”.

For the compound `CCCCCCCCCCCCCCCC(=O)OC[C@H](COP(=O)([O-])OCC[N+](C)(C)C)OC(=O)CCCCCCCCCCCCCCC` [DPPC, Dipalmitoyl phosphatidylcholine], in data set [1] (conclusion), the “retention of DPPC in the joint” value was “retained in the joint for long enough to enable lubrication to be maintained by monthly or fortnightly irrigation”. Further, in data set [1] (inferred from half-lives), the “time the joint would remain lubricated after an injection” value was “about one month”. Moreover, the “miscibility with propylene glycol” value in data set [2] is given as “totally miscible”.

As to `CCCCCCCCCCCCCCCC(=O)OC[C@H](COP(=O)([O-])OCC[N+](C)(C)C)OC(=O)CCCCCCCCCCCCCCC` [L-enantiomeric alpha-DPPC, alpha-dipalmitoyl phosphatidylcholine], the “metabolism by endogenous phospholipases” value in the data set on phospholipases is reported as “capable of metabolising”.

For the compound `CC(O)CO` (centres unmarked) [PG, propylene glycol], the “solvent as the major cause of the inflammatory reaction” value in data set [3] is reported as “This proved to be the case”. The “inflammatory reaction relative to hyaluronic acid” value in data set [4] (mammalian joints and other articulations) was “somewhat less severe”.

In the case of hyaluronic acid, the “inflammatory reaction in animal tissues” value in data set [4] (in vivo) is recorded as “appreciable inflammatory reaction”.
